Assay results from paper PMC12101465, “Synthesis and anti-mycobacterial activity of novel medium-chain β-lactone derivatives: a multi-target strategy to combat Mycobacterium abscessus” (RSC Medicinal Chemistry, 2025).
Converted amounts (≈) assume the structure as drawn.

Experiment: in vitro
Set-up: resazurin reduction viability assay, fluorescence, cytotoxicity on murine macrophages
Settings: mouse, raw macrophages; read-out: CC50 (µg/mL) Raw264.7
Protocol: The cytotoxicity of the new synthesized β-lactone analogs against eukaryotic cells was measured based on the reduction of resazurin as a value of cellular viability by metabolic activity, as previously described.[45,54,55] Murine (Raw264.7) macrophages (American Type Culture Collection TIB-71) were incubated with two-fold dilution of each compound for 24 h at 37 °C and 5% CO2. Then, 20 μL of a 0.025% (w/v) resazurin solution was added to each well, and fluorescence was measured following a 4 h incubation as described above. The compound concentration leading to 50% macrophage cell death was defined as the CC50.[28,29,56] All experiments were performed as three independent biological replicates. See ESI ^† for detailed protocol. 3.5. Cell toxicity of beta-lactone derivatives
With `CCCCCCCC/C=C\CCCCCCCC[C@@H]1C(=O)O[C@@H]1CCC` (racemic) [VM030, (±)-cis (Z)-3-(Octadec-9-en-1-yl)-4-propyloxetan-2-one] the CC50 at 24 h was > 125 µg/mL. With `CCCCCCCCCCCCC1C(=O)NC1CCC` (stereo not shown) [VM056, 3-Dodecyl-4-propylazetidin-2-one] the CC50 at 24 h was 30.6 ± 1.1 µg/mL (≈ 109 µM). In the case of `CCCCCCCCOCCCCCCCCC1C(=O)OC1CCC` (stereo not shown) [VM045, 3-(8-(Octyloxy)octyl)-4-propyloxetan-2-one], the CC50 at 24 h is reported as > 125 µg/mL. For `CCCCCCCC/C=C\CCCCCC[C@@H]1C(=O)O[C@H]1CCCCCCCCC` (racemic) [VM021, (±)-trans (Z)-3-(Hexadec-7-en-1-yl)-4-nonyloxetan-2-one], the CC50 at 24 h was > 125 µg/mL. In the case of `CCCCCCCCCC[C@@H]1C(=O)O[C@@H]1CCC` (racemic) [VM027, (±)-cis 3-Decyl-4-propyloxetan-2-one], the CC50 at 24 h is reported as > 125 µg/mL. For `CCCCCCCCCCCC[C@@H]1C(=O)O[C@@H]1CCC` (racemic) [VM041, (±)-cis 3-Dodecyl-4-propyloxetan-2-one], the CC50 at 24 h was > 125 µg/mL. Compound `CCCCCCCC[C@@H]1C(=O)N[C@H]1CCC` (racemic) [VM057, (±)-trans 3-Octyl-4-propylazetidin-2-one] has a CC50 at 24 h of 52.7 ± 1.1 µg/mL (≈ 234 µM). In the case of `CCCCCCCC/C=C\CCCCCC[C@@H]1C(=O)O[C@@H]1CCCCCC` (racemic) [VM024, (±)-cis (Z)-3-(Hexadec-7-en-1-yl)-4-hexyloxetan-2-one], the CC50 at 24 h is reported as > 125 µg/mL. For `CCCCCCCCC1(F)C(=O)OC1CCC` (mixture of isomers) [VM043, 3-Fluoro-3-octyl-4-propyloxetan-2-one], the CC50 at 24 h was > 125 µg/mL. With `CCCCCCCCCC[C@@H]1C(=O)O[C@H]1CCC` (racemic) [VM026, (±)-trans 3-Decyl-4-propyloxetan-2-one] the CC50 at 24 h was > 125 µg/mL. In the case of `C#CCCCCCC[C@@H]1C(=O)O[C@H]1CCC` (racemic) [VM053p, (±)-trans 3-(Oct-7-yn-1-yl)-4-propyloxetan-2-one], the CC50 at 24 h is reported as > 125 µg/mL. In the case of `CCCCCCCCOCCCCCCCCC1(F)C(=O)OC1CCC` (stereo not shown) [VM046, 3-Fluoro-3-(8-(octyloxy)octyl)-4-propyloxetan-2-one], the CC50 at 24 h is reported as > 125 µg/mL. With `CCCCCCCCCCC1C(=O)OC1CCC` (stereo not shown) [VM025, 3-Decyl-4-propyloxetan-2-one] the CC50 at 24 h was > 125 µg/mL. With `CCCCCCCC/C=C\CCCCCC[C@@H]1C(=O)O[C@H]1CCCCCC` (racemic) [VM022, (±)-trans (Z)-3-(Hexadec-7-en-1-yl)-4-hexyloxetan-2-one] the CC50 at 24 h was > 125 µg/mL. With `C#CCCCCCCCCCC1C(=O)OC1CCC` (stereo not shown) [VM051p, 4-Propyl-3-(undec-10-yn-1-yl)oxetan-2-one] the CC50 at 24 h was > 125 µg/mL. Work on `C#CCCC[C@@H]1C(=O)O[C@H]1CCC` (racemic) [VM050p, (±)-trans 3-(Pent-4-yn-1-yl)-4-propyloxetan-2-one] yielded a CC50 at 24 h of 44.1 ± 2.4 µg/mL (≈ 245 µM). `CCCCCCCCC1C(=O)NC1CCC` (stereo not shown) [VM058, 3-Octyl-4-propylazetidin-2-one] gave a CC50 at 24 h of 40.1 ± 0.6 µg/mL (≈ 178 µM). With `CCCCCCCC/C=C\CCCCCC[C@@H]1C(=O)O[C@@H]1CCCCCCCCC` (racemic) [VM023, (±)-cis (Z)-3-(Hexadec-7-en-1-yl)-4-nonyloxetan-2-one] the CC50 at 24 h was > 125 µg/mL. For `CCCCCCCC(=O)NCCCCCCC1C(=O)OC1CCC` (stereo not shown) [VM048, N-(6-(2-Oxo-4-propyloxetan-3-yl)hexyl)octanamide], the CC50 at 24 h was > 125 µg/mL. With `CCCCCCCC/C=C\CCCCCCCC[C@@H]1C(=O)O[C@H]1CCC` (racemic) [VM029, (±)-trans (Z)-3-(Octadec-9-en-1-yl)-4-propyloxetan-2-one] the CC50 at 24 h was > 125 µg/mL. With `CCCCCCCC[C@@H]1C(=O)O[C@H]1CCC` (racemic) [VM038, (±)-trans 3-Octyl-4-propyloxetan-2-one] the CC50 at 24 h was > 125 µg/mL. In the case of `C#CCCC1OC(=O)C1CCCCCCCC/C=C\CCCCCCCC` (stereo not shown) [VM035p, (Z)-4-(But-3-yn-1-yl)-3-(octadec-9-en-1-yl)oxetan-2-one], the CC50 at 24 h is reported as > 125 µg/mL. For `CCCCCCNC(=O)CCCCCCCC1C(=O)OC1CCC` (stereo not shown) [VM047, N-Hexyl-8-(2-oxo-4-propyloxetan-3-yl)octanamide], the CC50 at 24 h was > 125 µg/mL. Work on `C#CCCCC1C(=O)OC1CCC` (stereo not shown) [VM049p, 3-(Pent-4-yn-1-yl)-4-propyloxetan-2-one] yielded a CC50 at 24 h of 68.1 ± 3.1 µg/mL (≈ 378 µM). For `CCCCCCCC/C=C\CCCCCCCCC1C(=O)OC1CCC` (stereo not shown) [VM028, (Z)-3-(Octadec-9-en-1-yl)-4-propyloxetan-2-one], the CC50 at 24 h was > 125 µg/mL. For `CCCCCC[C@@H]1C(=O)O[C@H]1CCC` (racemic) [VM019, (±)-trans 3-Hexyl-4-propyloxetan-2-one], the CC50 at 24 h was > 125 µg/mL. In the case of `CCC[C@@H]1OC(=O)[C@H]1CCCCCCCCN=[N+]=[N-]` (racemic) [VM055p, (±)-trans 3-(8-Azidooctyl)-4-propyloxetan-2-one], the CC50 at 24 h is reported as > 125 µg/mL. For `CCCCCCCC/C=C\CCCCCC[C@@H]1C(=O)O[C@H]1CC` (racemic) [VM017, (±)-trans (Z)-4-Ethyl-3-(hexadec-7-en-1-yl)oxetan-2-one], the CC50 at 24 h was > 125 µg/mL. `CCCCCCCC[C@@H]1C(=O)O[C@@H]1CCC` (racemic) [VM039, (±)-cis 3-Octyl-4-propyloxetan-2-one] gave a CC50 at 24 h of 119 ± 4 µg/mL (≈ 526 µM). For `C#CCCC1OC(=O)C1CCCCCCCCCCCC` (stereo not shown) [VM054p, 4-(But-3-yn-1-yl)-3-dodecyloxetan-2-one], the CC50 at 24 h was > 125 µg/mL. With `C#CCCCCCCC[C@@H]1C(=O)O[C@H]1CCC` (racemic) [VM052p, (±)-trans 3-(Non-8-yn-1-yl)-4-propyloxetan-2-one] the CC50 at 24 h was > 125 µg/mL. In the case of `CCCCCCCC/C=C\CCCCCCC[C@H]1OC(=O)[C@H]1CCC` (racemic) [VM037, (±)-cis 4-((Z)-Heptadec-8-en-1-yl)-3-propyloxetan-2-one], the CC50 at 24 h is reported as > 125 µg/mL. With `CCCCCCCC/C=C\CCCCCC[C@@H]1C(=O)O[C@@H]1CC` (racemic) [VM018, (±)-cis (Z)-4-Ethyl-3-(hexadec-7-en-1-yl)oxetan-2-one] the CC50 at 24 h was > 125 µg/mL. In the case of `CCCCCCCC/C=C\CCCCCCC1(F)C(=O)OC1CCC` (stereo not shown) [VM042, (Z)-3-Fluoro-3-(hexadec-7-en-1-yl)-4-propyloxetan-2-one], the CC50 at 24 h is reported as > 125 µg/mL. For `CCCCCCCC/C=C\CCCCCCC[C@@H]1OC(=O)[C@H]1CCC` (racemic) [VM036, (±)-trans 4-((Z)-Heptadec-8-en-1-yl)-3-propyloxetan-2-one], the CC50 at 24 h was > 125 µg/mL. For `CCCCCCCCCCCCC1(F)C(=O)OC1CCC` (stereo not shown) [VM044, 3-Dodecyl-3-fluoro-4-propyloxetan-2-one], the CC50 at 24 h was > 125 µg/mL. In the case of `CCCCCCCCCCCC[C@@H]1C(=O)O[C@H]1CCC` (racemic) [VM040, (±)-trans 3-Dodecyl-4-propyloxetan-2-one], the CC50 at 24 h is reported as > 125 µg/mL.
